Assay results reported in US20150004224A1.
Several values for one entry are separate records, joined by “and”; a condition that tells them apart may be missing. Identical values can stand only once.

System: Hep G2 hepatocarcinoma cells
Assay: Gene expression profiling of Hep G2 cells incubated with EPA, DHA, DPA (Illumina HT-12 bead arrays, Ingenuity iReport)
[1] = EPA 100 μM, DHA 40 μM, DPA 11 μM
[2] = top genes uniquely regulated by DPA (11 μM), 48 hours

Structure (SMILES): CC/C=C\C/C=C\C/C=C\C/C=C\C/C=C\CCCC(=O)O [EPA, eicosapentaenoic acid (C20:5 n-3)]
- Beta-estradiol (inhibited) (top genes uniquely regulated by EPA) (EPA 100 μM): ←
- GNAI3 regulation (top genes uniquely regulated by EPA) (EPA 100 μM): ↑
- GOS2 regulation (top genes uniquely regulated by EPA) (EPA 100 μM): ↓
- HERPUD1 regulation (top genes uniquely regulated by EPA) (EPA 100 μM): ↓
- HIST2H2BE (includes others) regulation (top genes uniquely regulated by EPA) (EPA 100 μM): ↑
- IER3 regulation (top genes uniquely regulated by EPA) (EPA 100 μM): ↓
- IL2 (inhibited) (top genes uniquely regulated by EPA) (EPA 100 μM): ←
- Lipopolysaccharide (inhibited) (top genes uniquely regulated by EPA) (EPA 100 μM): ←
- MAT2A regulation (top genes uniquely regulated by EPA) (EPA 100 μM): ↑
- NFKBIA regulation (top genes uniquely regulated by EPA) (EPA 100 μM): ↓
- NFkB (complex) (inhibited) (top genes uniquely regulated by EPA) (EPA 100 μM): ←
- RGS2 (includes EG: 19735) regulation (top genes uniquely regulated by EPA) (EPA 100 μM): ↑
- AHSA2 regulation (top genes commonly regulated) [1]: ↑
- CATSPER2 regulation (top genes commonly regulated) [1]: ↓
- CCL20 regulation (top genes commonly regulated) [1]: ↓
- CDKN2AIPNL regulation (top genes commonly regulated) [1]: ↓
- HIST1H3A (includes others) up-regulation: symbol for regulation in common [1]: ¶(DHA)
- HIST2H2AA3/HIST2H2AA4 up-regulation: symbol for regulation in common [1]: ¶(DHA)
- IL8 regulation (top genes commonly regulated) [1]: ↓
- LOX up-regulation: symbol for regulation in common [1]: ¶(DHA)
- RELB down-regulation: symbol for regulation in common [1]: ¶(DPA)
- RELB regulation (top genes commonly regulated) [1]: ↓
- SRSF1 regulation (top genes commonly regulated) [1]: ↑
- SRSF1 up-regulation: symbol for regulation in common [1]: ¶(DPA)

Structure (SMILES): CC/C=C\C/C=C\C/C=C\C/C=C\C/C=C\C/C=C\CCC(=O)O [DHA, docosahexaenoic acid (C22:6 n-3)]
- FOXO3 regulation (top genes uniquely regulated by DHA) (DHA 40 μM): ←
- LSMD1 regulation (top genes uniquely regulated by DHA) (DHA 40 μM): ↑
- MAP2K2 regulation (top genes uniquely regulated by DHA) (DHA 40 μM): ↓
- MRPS34 regulation (top genes uniquely regulated by DHA) (DHA 40 μM): ↑
- MT1X regulation (top genes uniquely regulated by DHA) (DHA 40 μM): ↑
- NFKB1 regulation (top genes uniquely regulated by DHA) (DHA 40 μM): ←
- SNORA62 regulation (top genes uniquely regulated by DHA) (DHA 40 μM): ↑
- TNFSF11 regulation (top genes uniquely regulated by DHA) (DHA 40 μM): ←
- ZNF652 regulation (top genes uniquely regulated by DHA) (DHA 40 μM): ↓
- AHSA2 regulation (top genes commonly regulated) [1]: ↑
- ALPP down-regulation: symbol for regulation in common [1]: ¶(DPA)
- ALPP regulation (top genes commonly regulated) [1]: ↓
- CATSPER2 regulation (top genes commonly regulated) [1]: ↓
- CCBE1 down-regulation: symbol for regulation in common [1]: ¶(DPA)
- CCBE regulation (top genes commonly regulated) [1]: ↓
- CCL20 regulation (top genes commonly regulated) [1]: ↓
- CDKN2AIPNL regulation (top genes commonly regulated) [1]: ↓
- DDX51 down-regulation: symbol for regulation in common [1]: ¶(DPA)
- DDX51 regulation (top genes commonly regulated) [1]: ↓
- HIST2H2AA3/HIST2H2AA4 up-regulation: symbol for regulation in common [1]: ¶(EPA)
- IL8 regulation (top genes commonly regulated) [1]: ↓
- LOX up-regulation: symbol for regulation in common [1]: ¶(EPA)
- MST1 (includes EG: 15235) regulation (top genes commonly regulated) [1]: ↑
- MST1 (includes EG: 15235) up-regulation: symbol for regulation in common [1]: ¶(DPA)

Structure (SMILES): CC/C=C\C/C=C\C/C=C\C/C=C\C/C=C\CCCCCC(=O)O [DPA, docosapentaenoic acid (C22:5 n-3)]
- number of genes involved in lipid metabolism responsive (1 μM DPA): 2 genes
- fewer genes affected at the lower than at the higher DPA concentration (1 μM vs 11 μM DPA): 10 fold
- increase in number of cardiovascular physiology genes affected (11 μM DPA vs 1 μM DPA): five-fold
- number of lipid metabolism genes uniquely responding with statistically significant change in expression (11 μM DPA, not 1 μM): 22 genes
- number of genes uniquely responsive to the higher, but not the lower, DPA level (11 μM vs 1 μM DPA): 310 genes and 300 genes
- Cardiovascular: Total gene responses Low [DPA] (DPA 1 μM): 10
- Inflammatory: Total gene responses Low [DPA] (DPA 1 μM): 18
- Lipid metabolism: Total gene responses Low [DPA] (DPA 1 μM): 2
- Cardiovascular: Gene responses in common (DPA 1 μM and 11 μM): 6
- Inflammatory: Gene responses in common (DPA 1 μM and 11 μM): 4
- Lipid metabolism: Gene responses in common (DPA 1 μM and 11 μM): 0
- APOA2 expression Fold Change (DPA 11 μM): −1.229
- CD83 expression Fold Change (DPA 11 μM): −1.629
- Cardiovascular: Total gene responses High [DPA] (DPA 11 μM): 51
- DGAT1 expression Fold Change (DPA 11 μM): 1.602
- DNAJB1 expression Fold Change (DPA 11 μM): −1.489
- FGFR3 expression Fold Change (DPA 11 μM): 1.336
- GNAI3 expression Fold Change (DPA 11 μM): 1.455
- IL8 expression Fold Change (DPA 11 μM): −2.535
- IL18 (includes EG: 16173) expression Fold Change (DPA 11 μM): −1.347
- IL32 expression Fold Change (DPA 11 μM): −1.629
- IP6K1 expression Fold Change (DPA 11 μM): −1.242
- IP6K2 expression Fold Change (DPA 11 μM): 1.319
- Inflammatory: Total gene responses High [DPA] (DPA 11 μM): 22
- KIT expression Fold Change (DPA 11 μM): 1.239
- Lipid metabolism: Total gene responses High [DPA] (DPA 11 μM): 22
- NFKB1 expression Fold Change (DPA 11 μM): −1.386
- PDPN (includes EG: 10630) expression Fold Change (DPA 11 μM): −1.307
- PGF expression Fold Change (DPA 11 μM): −1.284
- PIP4K2B expression Fold Change (DPA 11 μM): −1.578
- PLA2G16 expression Fold Change (DPA 11 μM): −1.337
- PLIN5 expression Fold Change (DPA 11 μM): −1.371
- PTGR2 expression Fold Change (DPA 11 μM): −1.416
- PTX3 expression Fold Change (DPA 11 μM): −1.536
- RGS2 (includes EG: 19735) expression Fold Change (DPA 11 μM): 1.289
- STIP1 expression Fold Change (DPA 11 μM): −1.469
- ACADSB (short/branched chain acyl-CoA dehydrogenase) expression (DPA at 11 μM): upregulates
- HMGCR expression (DPA at 11 μM): downregulated
- SQLE expression (DPA at 11 μM): downregulated
- AHSA2 regulation (top genes commonly regulated) [1]: ↑
- AHSA2 up-regulation: symbol for regulation in common [1]: →♦
- ALPP down-regulation: symbol for regulation in common [1]: ¶(DHA)
- ALPP regulation (top genes commonly regulated) [1]: ↓
- CATSPER2 down-regulation: symbol for regulation in common [1]: →♦
- CATSPER2 regulation (top genes commonly regulated) [1]: ↓
- CCBE1 down-regulation: symbol for regulation in common [1]: ¶(DHA)
- CCBE regulation (top genes commonly regulated) [1]: ↓
- CCL20 regulation (top genes commonly regulated) [1]: ↓
- CDKN2AIPNL regulation (top genes commonly regulated) [1]: ↓
- DDX51 down-regulation: symbol for regulation in common [1]: ¶(DHA)
- DDX51 regulation (top genes commonly regulated) [1]: ↓
- IL8 regulation (top genes commonly regulated) [1]: ↓
- MST1 (includes EG: 15235) regulation (top genes commonly regulated) [1]: ↑
- MST1 (includes EG: 15235) up-regulation: symbol for regulation in common [1]: →¶(DHA)
- RELB down-regulation: symbol for regulation in common [1]: ¶(EPA)
- RELB regulation (top genes commonly regulated) [1]: ↓
- SRSF1 regulation (top genes commonly regulated) [1]: ↑
- SRSF1 up-regulation: symbol for regulation in common [1]: →¶(EPA)
- increase in number of genes involved in inflammatory pathways (printed: observed at 1 μM): only a minor increase
- ALDOC gene regulation [2]: ↑
- AMT gene regulation [2]: ↑
- HNRNPA2B1 gene regulation [2]: ↑
- MGC16121 gene regulation [2]: ↑
- PRKCD gene regulation [2]: ←
- QRFPR gene regulation [2]: ↓
- RELA (inhibited) gene regulation [2]: ←
- SRSF5 gene regulation [2]: ↑
- STK36 gene regulation [2]: ↑
- TLR7 (inhibited) gene regulation [2]: ←
- TOP3B gene regulation [2]: ↑
- ZNF14 gene regulation [2]: ↑
